Measured values: ChEMBL document CHEMBL5321294, “Evolution of Slow-Binding Inhibitors Targeting Histone Deacetylase Isoforms” (J Med Chem, 2023)
Non-standard residues stand in square brackets, D forms with d. Residues, ends and D or L forms follow the SMILES beside them. *: point of attachment. Asu = N[C@@H](CCCCCC(=O)O)C(=O)O; dPip = O=C(O)[C@H]1CCCCN1; NHOH = ON*

Columns and labels:
[1] = molecular target: T1, Protein deacetylase HDAC6 (Homo sapiens) (UniProt Q9UBN7); experiment: Binding affinity to recombinant human HDAC6 using Ac-Leu-Gly-Lys(Ac)-AMC as substrate measured after 60 mins assessed as binding constant (k-2) by fluorescence based assay
T1 sequence (whole entry): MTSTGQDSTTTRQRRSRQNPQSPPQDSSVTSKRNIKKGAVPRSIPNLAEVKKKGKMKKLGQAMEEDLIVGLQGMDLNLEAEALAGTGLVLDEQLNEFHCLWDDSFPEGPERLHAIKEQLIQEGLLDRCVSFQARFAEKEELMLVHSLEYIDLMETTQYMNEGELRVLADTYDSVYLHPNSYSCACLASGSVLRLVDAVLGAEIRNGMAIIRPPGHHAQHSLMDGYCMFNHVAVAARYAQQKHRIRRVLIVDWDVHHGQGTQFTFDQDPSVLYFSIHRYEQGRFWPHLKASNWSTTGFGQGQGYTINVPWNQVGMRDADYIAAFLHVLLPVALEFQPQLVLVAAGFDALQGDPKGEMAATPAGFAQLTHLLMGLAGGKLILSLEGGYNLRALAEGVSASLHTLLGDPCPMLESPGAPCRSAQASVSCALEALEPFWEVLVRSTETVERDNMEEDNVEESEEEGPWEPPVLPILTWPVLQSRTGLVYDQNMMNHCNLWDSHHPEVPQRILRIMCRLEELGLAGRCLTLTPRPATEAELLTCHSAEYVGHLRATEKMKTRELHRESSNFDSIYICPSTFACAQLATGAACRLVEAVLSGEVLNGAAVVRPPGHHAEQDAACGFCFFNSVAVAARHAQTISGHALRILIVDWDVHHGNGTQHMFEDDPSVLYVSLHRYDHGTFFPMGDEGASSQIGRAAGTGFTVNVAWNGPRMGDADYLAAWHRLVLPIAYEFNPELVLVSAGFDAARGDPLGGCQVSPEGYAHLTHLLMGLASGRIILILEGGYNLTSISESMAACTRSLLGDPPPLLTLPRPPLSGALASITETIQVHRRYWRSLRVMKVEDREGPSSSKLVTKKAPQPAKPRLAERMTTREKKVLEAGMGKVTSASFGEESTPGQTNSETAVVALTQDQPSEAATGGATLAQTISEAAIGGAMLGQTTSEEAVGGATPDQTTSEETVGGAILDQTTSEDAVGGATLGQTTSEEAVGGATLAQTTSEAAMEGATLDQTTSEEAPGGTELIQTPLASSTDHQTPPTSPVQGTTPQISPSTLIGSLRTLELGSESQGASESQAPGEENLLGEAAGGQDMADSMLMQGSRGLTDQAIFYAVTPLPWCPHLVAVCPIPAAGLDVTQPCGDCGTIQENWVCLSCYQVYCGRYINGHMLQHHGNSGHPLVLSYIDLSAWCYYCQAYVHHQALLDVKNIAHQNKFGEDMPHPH

[2] = molecular target: T2, Histone deacetylase 11 (Homo sapiens, UniProt Q96DB2); experiment: Binding affinity to human HDAC11 assessed as inhibition constant (ki,1)
T2 sequence (Q96DB2 whole entry): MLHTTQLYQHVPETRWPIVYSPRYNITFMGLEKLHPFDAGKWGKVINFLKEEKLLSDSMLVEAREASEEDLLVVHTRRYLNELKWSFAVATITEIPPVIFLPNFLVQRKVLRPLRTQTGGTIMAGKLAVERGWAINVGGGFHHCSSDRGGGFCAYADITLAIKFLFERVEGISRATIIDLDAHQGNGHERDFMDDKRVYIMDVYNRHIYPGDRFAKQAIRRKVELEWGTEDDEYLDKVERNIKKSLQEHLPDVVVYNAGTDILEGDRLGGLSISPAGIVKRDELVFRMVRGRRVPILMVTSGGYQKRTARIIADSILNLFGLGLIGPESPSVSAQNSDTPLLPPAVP

[3] = molecular target: T3, Histone deacetylase 3 (Homo sapiens, UniProt O15379); experiment: Binding affinity to HDAC3 (unknown origin) assessed as inhibition constant(ki,1)
T3 sequence (O15379 whole entry): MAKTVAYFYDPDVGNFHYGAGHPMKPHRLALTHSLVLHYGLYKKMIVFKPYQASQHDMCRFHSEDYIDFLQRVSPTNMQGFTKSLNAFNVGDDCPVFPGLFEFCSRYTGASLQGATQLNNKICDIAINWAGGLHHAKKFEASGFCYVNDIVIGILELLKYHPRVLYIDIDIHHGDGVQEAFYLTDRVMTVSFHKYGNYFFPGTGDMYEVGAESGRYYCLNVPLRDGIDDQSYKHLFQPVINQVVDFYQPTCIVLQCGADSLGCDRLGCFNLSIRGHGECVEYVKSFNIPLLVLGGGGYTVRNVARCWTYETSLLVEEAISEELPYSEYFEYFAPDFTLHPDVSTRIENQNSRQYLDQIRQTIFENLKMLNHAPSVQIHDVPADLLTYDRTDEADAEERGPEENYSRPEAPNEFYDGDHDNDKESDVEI

[4] = molecular target: T3, Histone deacetylase 3; experiment: Binding affinity to HDAC3 (unknown origin) assessed as inhibition constant
[5] = molecular target: T4, Protein deacetylase HDAC6 (Homo sapiens, UniProt Q9UBN7); experiment: Binding affinity to recombinant human HDAC6 using Ac-Leu-Gly-Lys(Ac)-AMC as substrate measured after 60 mins assessed as inhibition constant (ki,1) by fluorescence based assay
T4 sequence (Q9UBN7 whole entry): T1 sequence (whole entry)

[6] = molecular target: Histone deacetylase 1 (Homo sapiens, UniProt Q13547); experiment: Binding affinity to HDAC1 (unknown origin) assessed as inhibition constant(ki,1)
Chain of Histone deacetylase 1 (Q13547 whole entry): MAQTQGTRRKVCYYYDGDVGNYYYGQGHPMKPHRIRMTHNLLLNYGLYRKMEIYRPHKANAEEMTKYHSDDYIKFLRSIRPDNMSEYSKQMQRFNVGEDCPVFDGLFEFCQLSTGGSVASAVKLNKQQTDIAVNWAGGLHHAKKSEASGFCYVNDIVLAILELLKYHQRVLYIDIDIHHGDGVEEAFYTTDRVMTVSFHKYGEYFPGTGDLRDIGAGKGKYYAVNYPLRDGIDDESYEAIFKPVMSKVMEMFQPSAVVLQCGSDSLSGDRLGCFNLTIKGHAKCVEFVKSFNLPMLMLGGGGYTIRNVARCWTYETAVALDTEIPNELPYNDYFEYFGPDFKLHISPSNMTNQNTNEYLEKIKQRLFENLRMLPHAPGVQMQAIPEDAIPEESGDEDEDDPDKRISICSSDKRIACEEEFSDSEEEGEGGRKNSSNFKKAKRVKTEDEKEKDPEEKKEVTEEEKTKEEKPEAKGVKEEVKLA

[7] = molecular target: T3, Histone deacetylase 3; experiment: Binding affinity to HDAC3 (unknown origin) assessed as binding constant(k2)
[8] = molecular target: T3, Histone deacetylase 3; experiment: Binding affinity to HDAC3 (unknown origin) assessed as binding constant(k-2)
[9] = molecular target: Histone deacetylase 2 (Homo sapiens, UniProt Q92769); experiment: Binding affinity to HDAC2 (unknown origin) assessed as inhibition constant(ki,1)
Chain of Histone deacetylase 2 (Q92769 whole entry): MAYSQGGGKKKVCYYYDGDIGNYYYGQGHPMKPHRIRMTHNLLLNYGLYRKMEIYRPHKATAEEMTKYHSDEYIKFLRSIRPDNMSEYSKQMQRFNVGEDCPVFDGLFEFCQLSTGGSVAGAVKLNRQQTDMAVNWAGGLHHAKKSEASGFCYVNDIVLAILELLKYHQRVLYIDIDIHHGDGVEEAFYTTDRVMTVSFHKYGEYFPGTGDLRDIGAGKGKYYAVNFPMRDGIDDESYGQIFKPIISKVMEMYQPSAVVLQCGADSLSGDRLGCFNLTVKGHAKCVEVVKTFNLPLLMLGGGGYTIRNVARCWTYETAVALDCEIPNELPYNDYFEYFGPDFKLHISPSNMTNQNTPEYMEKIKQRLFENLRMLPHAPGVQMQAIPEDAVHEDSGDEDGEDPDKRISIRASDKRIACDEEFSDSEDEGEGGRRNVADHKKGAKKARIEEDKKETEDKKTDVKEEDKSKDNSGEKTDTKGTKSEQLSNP

[10] = molecular target: T1, Protein deacetylase HDAC6 (Homo sapiens); experiment: Binding affinity to recombinant human HDAC6 using Ac-Leu-Gly-Lys(Ac)-AMC as substrate assessed as residence time
[11] = molecular target: T3, Histone deacetylase 3; experiment: Binding affinity to HDAC3 (unknown origin) assessed as residence time
[12] = molecular target: T5, Histone deacetylase 11 (Homo sapiens) (UniProt Q96DB2); experiment: Binding affinity to human HDAC11 assessed as binding constant (k-2)
T5 sequence (whole entry): T2 sequence (Q96DB2 whole entry)

[13] = molecular target: T4, Protein deacetylase HDAC6; experiment: Binding affinity to recombinant human HDAC6 using Ac-Leu-Gly-Lys(Ac)-AMC as substrate measured after 60 mins assessed as inhibition constant by fluorescence based assay
[14] = molecular target: T5, Histone deacetylase 11 (Homo sapiens); experiment: Binding affinity to human HDAC11 assessed as binding constant (k2)
[15] = molecular target: T1, Protein deacetylase HDAC6 (Homo sapiens); experiment: Binding affinity to recombinant human HDAC6 using Ac-Leu-Gly-Lys(Ac)-AMC as substrate measured after 60 mins assessed as binding constant (k2) by fluorescence based assay

SMILES: CC[C@H](C)[C@@H]1NC(=O)[C@H](Cc2c[nH]c3ccccc23)NC(=O)[C@H](CCCCCC(=O)NO)NC(=O)[C@H]2CCCCN2C1=O (cyclo([Asu](NHOH)WI[dPip]))
- K [1]: 0.01 min⁻¹
- Ki [2]: 18 nM
- Ki [3]: 1.6 nM
- Ki [4]: 0.04 nM
- Ki [5]: 23 nM
- Ki [6]: 0.32 nM
- K [7]: 0.158 min⁻¹
- K [8]: 0.009 min⁻¹
- Ki [9]: 0.35 nM
- TIME [10]: 1.67 h
- TIME [11]: 1.85 h
- K [12]: 0 min⁻¹
- Ki [13]: ~3.6 nM
- K [14]: 0.73 min⁻¹
- K [15]: 0.17 min⁻¹
